Data: patent publication US12728120B2, “Prevention or treatment of brain disease and adverse effects of cholinesterase inhibitors” (DR. NOAH BIOTECH INC., priority 2021, dated 2026)
Where a name gives a salt, the structure may show the parent alone.

What was measured:
IL-6 = IL-6 ELISA in LPS-treated BV2 microglial cells; assay type: cell-based, mouse; conditions: BV2, 1 μg/ml LPS, 18 hours; FIG. 4
Description: (§1) Briefly, BV2 microglial cells were plated in 96-well plates at 2×10^5 cells/well in DMEM high glucose medium (Welgene, LM001-05) supplemented with 10% fetal bovine serum (FBS; YOUNG IN, US-FBS-500) and 1% penicillin-streptomycin (P-S; Gibco, 15070063).

EPO = EPO expression in brain (western blot), MCAO-reperfusion model; assay type: in vivo, Sprague-Dawley rats; conditions: 21 days after MCAO
Description: Brains were homogenized in lysate buffer with protease inhibitor cocktail on ice. […] Protein concentration was measured using DC (Bio-rad, #5000112) protein assay. Samples were loaded using the SDS-PAGE system (Bio-rad, #1658004 and #1645052) and transferred onto nitrocellulose membranes (Bio-rad, #17001917 and #1704272). The membranes were blocked for 1 hour at room temperature with Tris-buffered saline-Tween20 (TBS-T) containing 5% skim milk and then incubated with pAKT antibody (Cell signaling, #4060), AKT primary antibody (Santacruz, SC-81434), EPO primary antibody (SCBT, SC-5290), ERK (CST, #9102), pERK (CST, #9101) and GAPDH (Bioworld, #MBOO1H) in 5% skim milk overnight at 4° C. Next day, the membranes were washed 3 times in TBS-T for 5 minutes, incubated with horseradish peroxidase-conjugated (HRP-conjugated) secondary antibody or fluorescence conjugated secondary antibody for 1-2 hours, and then washed 3 times in TBS-T for 5 minutes again. After final wash, the membranes were developed for chemiluminescence or fluorescence system. The signals of chemiluminescence or fluorescence were acquired and quantified by using ECL solution (Bio-rad, #1705062), iBright 1500 (Invitrogen, #CL1500), and Odyssey CLx (LI-COR, #CLX-2383) imaging system.

[1] = tested on: ReN VM-immortalized cells, human neural progenitor cell line; assay: HB9 motor neuron marker expression in neural progenitor cells (differentiation); assay type: cell-based; conditions: alone or combined, 3 days
Description: ReN VM-immortalized cells, human neural progenitor cell line, were used (EMD Millipore, SCC008). These neural progenitor cells can differentiate into motor neurons and glial cells. The degree of differentiation of neural progenitor cells into motor neurons was determined by analysing the level of HB9, a specific motor neuron marker. ReN VM cells were cultured on laminin (Corning, 354232)-coated 75T Flask in the growth medium, which is DMEM/F12 (Welgene, #LM002-08) supplemented with 20 ng/ml basic fibroblast growth factor (bFGF; Gibco, 15750-060), 20 ng/ml epidermal growth factor (EGF; Sigma, E9644), serum-free B27 (Gibco, 17504-044), 10 KU heparin (Sigma, H3393), and 1% gentamicin (Gibco, 17504-044). Cells were plated in 96-well plates at 7000 cells/well in the growth media in a 37° C./5% CO2 incubator for 3 days. […] Immunostaining was performed against HB9, a specific motor neuronal marker, to assess the population of motor neurons. Briefly, drug-treated ReN VM cells were fixed in 10% formalin solution for 20 minutes and permeabilized in 0.1% TritonX-100. […] Fluorescence intensity levels were measured using an Odyssey® DLx Infrared Imaging System (LI-COR, CLS-2383). All data were analyzed using the GraphPad Prism 9 software. Statistical significance was assessed using a one-way ANOVA or two-way ANOVA followed by Dunnett's post-hoc analysis unless otherwise noted. […]

ERK pathway = assay: pERK expression in brain (western blot), MCAO-reperfusion model; assay type: in vivo, Sprague-Dawley rats
Description: (§2) At 21 days after 45-minutes-MCAO-reperfusion modeling, brains were collected to perform a western blot assay. Brains were homogenized in lysate buffer with protease inhibitor cocktail on ice. Each sample was centrifuged at 13,000 rpm and 4° C. for 30 minutes and the supernatant was used for further experiments. Protein concentration was measured using DC (Bio-rad, #5000112) protein assay. Samples were loaded using the SDS-PAGE system (Bio-rad, #1658004 and #1645052) and transferred onto nitrocellulose membranes (Bio-rad, #17001917 and #1704272). The membranes were blocked for 1 hour at room temperature with Tris-buffered saline-Tween20 (TBS-T) containing 5% skim milk and then incubated with pAKT antibody (Cell signaling, #4060), AKT primary antibody (Santacruz, SC-81434), EPO primary antibody (SCBT, SC-5290), ERK (CST, #9102), pERK (CST, #9101) and GAPDH (Bioworld, #MBOO1H) in 5% skim milk overnight at 4° C. Next day, the membranes were washed 3 times in TBS-T for 5 minutes, incubated with horseradish peroxidase-conjugated (HRP-conjugated) secondary antibody or fluorescence conjugated secondary antibody for 1-2 hours, and then washed 3 times in TBS-T for 5 minutes again. After final wash, the membranes were developed for chemiluminescence or fluorescence system. The signals of chemiluminescence or fluorescence were acquired and quantified by using ECL solution (Bio-rad, #1705062), iBright 1500 (Invitrogen, #CL1500), and Odyssey CLx (LI-COR, #CLX-2383) imaging system.

PI3K-AKT pathway = assay: pAKT expression in brain (western blot), MCAO-reperfusion model; assay type: in vivo, Sprague-Dawley rats
Description: as §2

neuronal cells (SH-SY5Y) = assay: ROS production (DCF-DA) in H2O2-treated SH-SY5Y cells; assay type: cell-based; conditions: 100 μM H2O2 24 hours, DONE alone 5 uM, NAC alone 5 uM, NDC = DONE 2.5 uM + NAC 2.5 uM, FIG. 3
Description: SH-SY5Y cells were plated in 96 well plates at 2×10^5 cells/well in DMEM supplemented with 10% fetal bovine serum (FBS; YOUNG IN, US-FBS-500) and 1% penicillin-streptomycin (P-S; Gibco, 15070063). Six hours after seeding, SH-SY5Y cells were treated with 100 μM H2O2 for 24 hours (Sigma, #323381) followed by incubation with DONE alone, NAC alone, and combination of DONE and NAC. After incubation, ROS activity in the cell was measured by adding DCF-DA (Thermo, #D399) containing media. Absorbance was measured using a Synergy HTX Multi-Mode reader (Biotek) with 465 nm excitation and 540 nm emission. Measured fluorescence was normalized to control as follows: (drug-treated group OD−DCF-DA alone O.D)/(control O.D−DCF alone O.D)*100.

[2] = tested on: cerebral infarction-reperfusion model in Sprague-Dawley rats; assay: Rotarod test in MCAO-reperfusion stroke model; assay type: in vivo; conditions: for Rotarod score (fall latency normalized to day 1), mean value: I.V. daily, FIG. 15
Description: The Rotarod test was performed on the 1, 3, 7, 14, and 21 days after 45 minutes-MCAO (middle cerebral artery occlusion)-reperfusion modelling to induced ischemia (Brain Stroke). […] The animal was carefully placed on a rotating rod (JD-A-07RA5, BS Technolab Inc., Korea) and the time (second) that animal was fallen was measured. The speed of rotating rod was increased from 4 rpm to 40 rpm for 300 second. […] For rotarod latency test, Nested one-way ANOVA and Two-way ANOVA was used to analyze significance between the groups on each day. Statistical analysis was performed using Prism 9 (GraphPad Software Inc., San Diego, CA, USA) and statistical significance was set at a P-value of less than 0.05.

pCREB = pCREB expression (western blot) in primary cultured neurons; assay type: cell-based, mice; conditions: mouse primary neuro-glia culture, 4 days treatment, β-actin normalized; FIG. 14C
Description: (§3) To evaluate the synaptic plasticity, primary neuro-glia culture was prepared from cortices of embryonic day 16 C57/BL6 mice. Cells were collected by mechanical dissection and chemical dissociation with trypsin and DNase treatment and cultured in Neurobasal (NB) and MEM media supplemented with 1% B-27, 2 mM L-glutamine, 5% Fetal Bovine Serum, 5% Horse Serum, 1×MEM-NEAA (non-essential amino acids), and 1% Penicillin-Streptomycin (PS). Cells were cultured in Poly-D-Lysine+Laminin-coated 6-well plates at 2×10^6 cells/well in growth media. After 3 days in vitro (DIV 3), media was changed to NB media supplemented with 2% B-27, 2 mM L-glutamine, and 1% PS. […] Protein was resolved by 8% SDS-PAGE electrophoresis, transferred to polyvinylidene difluoride membranes and blocked with 5% non-fat dry milk for 1 hour at RT. Membrane was immunoblotted using following antibodies; primary antibody: PSD-95 (Abcam, ab18258, 1:2,000), phospho-CREB (Millipore, #06-519, 1:2,000), β-actin (Cell signaling, #3700, 1:3,000), and secondary antibody:HRP-conjugated anti-mouse IgG (AbFrontier, LF-SA8001, 1:5,000), HRP-conjugated anti-rabbit IgG (AbFrontier, LF-SA8002, 1:5,000). Signal was visualized by chemiluminescence methods using ECL solution and imaged using ImageQuant LAS 500 system. […]

PSD-95 = PSD-95 expression (western blot) in primary cultured neurons; assay type: cell-based, mice; conditions: mouse primary neuro-glia culture, 4 days treatment, β-actin normalized; FIG. 14B
Description: as §3

microglia cells (BV2) = assay: NO assay (Griess reagent) in LPS-treated BV2 microglial cells; assay type: cell-based; conditions: donepezil HCl alone, antioxidant alone or combination, FIG. 8
Description: as §1
After incubation, NO levels were quantified from half of the cell media using a Griess reagent assay kit (Promega, G2930). Colorimetric changes in the media and Griess reagent mixture were measured using a Synergy HTX Multi-Mode reader (Biotek) at 540 nm. All data were analyzed using the GraphPad Prism 9 software. Statistical significance was assessed using a one-way ANOVA or two-way ANOVA followed by Dunnett's post-hoc analysis unless otherwise noted. All data are presented as the mean±SEM, and significance was set at P<0.05. […] (*P<0.05, **P<0.01, ***P<0.001, ****P<0.0001, one-way ANOVA).

neural progenitor cells = assay: Number of viable cells (cytotoxicity) in neural progenitor cells; conditions: with donepezil, NAC or their combination; FIG. 13B
[3] = 1 mpk donepezil HCl or 120 mpk NAC used alone, FIG. 17
[4] = brain, 21 days after MCAO, 1 mpk donepezil HCl, 120 mpk NAC, alone or combined

Row | SMILES | ROS, mean value normalized to control (CTL 100%) (neuronal cells (SH-SY5Y)) [%] | Rotarod score normalized to VEH (100%) ([2]; day 3 after MCAO) [%] | Rotarod score (fall latency normalized to day 1), mean value ([2]; day 3 after MCAO) | Rotarod score (fall latency normalized to day 1), mean value ([2]; day 7 after MCAO) | Rotarod score normalized to VEH (100%) ([2]; day 14 after MCAO) [%] | Rotarod score (fall latency normalized to day 1), mean value ([2]; day 14 after MCAO) | Rotarod score normalized to VEH (100%) ([2]; day 21 after MCAO) [%] | Rotarod score (fall latency normalized to day 1), mean value ([2]; day 21 after MCAO) | pCREB expression, mean value normalized to untreated control (CTL 1.0) (pCREB) | PSD-95 expression, mean value normalized to untreated control (CTL 1.0) (PSD-95) | NO, mean value relative to LPS (100%) (microglia cells (BV2)) [%] | also measured
1 | CC(=O)N[C@@H](CS)C(=O)O [NAC, N-acetylcysteine] | 88.93 | 139.30 | 23.39 | 38.01 | 83.86 | 40.65 | 44.96 | 28.67 | 1.13 | 1.43 | – | IL-6, mean value relative to LPS (100%) (IL-6): 95.48%; EPO expression normalized to VEH (100%) (EPO): 151.66%; EPO expression, mean value (EPO; FIG. 18): 172.43; HB9 expression level, mean value relative to CTL (100%) ([1]; donepezil 0.1 μM, NAC 12 μM, FIG. 9A): 116.9%; HB9 expression level, mean value relative to CTL (100%) ([1]; donepezil 1 μM, NAC 120 μM, FIG. 9B): 125.36%; activation of the ERK pathway (ERK pathway; [3]): did not activate; pERK expression normalized to VEH (100%) (ERK pathway; [4]): 189.77%; pERK expression, mean value (ERK pathway; brain, 21 days after MCAO, 1 mpk donepezil HCl, 120 mpk NAC, alone or combined, FIG. 17B): 99.50; activation of the PI3K-AKT pathway (PI3K-AKT pathway; [3]): did not activate; pAKT expression normalized to VEH (100%) (PI3K-AKT pathway; [4]): 55.88%; pAKT expression, mean value (PI3K-AKT pathway; brain, 21 days after MCAO, 1 mpk donepezil HCl, 120 mpk NAC, alone or combined, FIG. 17A): 44.23
2 | COc1ccc([C@H]2OC[C@H]3[C@@H]2CO[C@H]3c2ccc(O[C@@H]3O[C@H](CO)[C@@H](O)[C@H](O)[C@H]3O)c(OC)c2)cc1OC [Forsythin] | – | – | – | – | – | – | – | – | – | – | 89.97 | –
3 | COc1cc2c(cc1OC)C(=O)C(CC1CCN(Cc3ccccc3)CC1)C2 (stereo not shown) [Donepezil-HCl, donepezil] | 76.52 | 93.92 | 15.77 | 30.61 | 81.08 | 39.30 | 77.68 | 49.53 | 0.92 | 1.20 | – | –
4 | CO[C@H]1C[C@@H]2CC[C@@H](C)[C@@](O)(O2)C(=O)C(=O)N2CCCC[C@H]2C(=O)O[C@H]([C@H](C)C[C@@H]2CC[C@@H](O)[C@H](OC)C2)CC(=O)[C@H](C)/C=C(\C)[C@@H](O)[C@@H](OC)C(=O)[C@H](C)C[C@H](C)/C=C/C=C/C=C/1C [rapamycin] | – | – | – | – | – | – | – | – | – | – | – | cytotoxicity on addition of rapamycin (neural progenitor cells): did not induce cytotoxicity
5 | O=C(O)CCCCC1CCSS1 (stereo not shown) [Thioctic acid] | – | – | – | – | – | – | – | – | – | – | 68.45 | –
